Source: patent US20200009020A1, “Caries-Resistant Composite Resin” (Den-Mat Holdings, LLC, priority 2016, published 2020)

Key:
e. coli = test: Antimicrobial activity, modified AATCC TM 100-2012 for solid and composite materials; assay type: cell-based; conditions: 1.0% Wt. Fract. ZnO in a direct filling composite resin
Method: (§1) Zinc oxide has been tested for antimicrobial activity in this invention according to a test that is based upon the International Standard AATCC TM 100-2012. The AATCC TM 100-2012 standard tests for microbial activity on textiles, so the test was modified for use on solid and composite materials.
(§2) As discussed above, microbial activity is measured using a modified AATCC TM 100-2012 standard for use on solid and composite materials.

strep mutans = test: as above; assay type: cell-based; conditions: 1.0% Wt. Fract. ZnO in a direct filling composite resin
Method: as §1, §2

bacteria = test: Antimicrobial activity, modified AATCC TM 100-2012 (general statement); assay type: cell-based; conditions: modified AATCC TM 100-2012 test
Excerpt: as §1

[1] = Translucency of a direct filling composite resin; assay type: physicochemical
Excerpt: When zinc oxide is incorporated into a chemical for use in the oral cavity, it is typically incorporated for its function as an opacifying agent and can be added to a product for this function alone. However, there is a limit to the amount that can be added. Resins are esthetic restorative materials and require high translucency to be esthetic. For this reason, the amount of zinc oxide that may be added is limited to less than 0.8 wt. fract. See Table 5 for the upper limits of zinc oxide that can be incorporated into a direct fill composite resin while maintaining high translucency.
In Table 5, as the wt. fraction of Zinc Oxide is increased, the opacity also increases to a level that is not considered suitable for use as a dental composite resin for esthetic purposes. For esthetic purposes, the dental composite resin must be sufficiently translucent to mimic the appearance of natural dentin. Beyond this level, the opacity becomes too high and the restoration appears as chalky white.

## [O]=[Zn] [Zinc Oxide, zinc oxide]
e. coli
  % Reduction of e coli: 100%
Strep mutans
  % reduction of strep mutans: 100%
bacteria
  antimicrobial activity: effective in killing bacteria
[1]; Wt. Fract. ZnO 0.8 in a direct filling composite resin
  Translucency: pass
[1]; Wt. Fract. ZnO 1.0 in a direct filling composite resin
  Translucency: fail
